The text below walks through data of US20080287375A1, “Selective Glycosidase Inhibitors, Methods of Making Inhibitors, and Uses Thereof” (SIMON FRASER UNIVERSITY, priority 2005, published 2008).

The test system of data set [1] is O-GlcNAc modified proteins in rat tissues. The data set can be described thus: Western blot of O-GlcNAc modified proteins in tissues of rats after tail vein injection of varying doses. The class given is in vivo. The procedure: Four rats were treated by tail vein injection of different doses of inhibitor 9c or a buffer control. Two sequential injections were performed approximately 18 hours apart and the rats were then sacrificed 24 hours after the first injection. Western blot analyses using an α-O-GlcNAc antibody (CTD110.6) clearly indicate that the inhibitor 9c easily gains access into a variety of tissues including brain (A), muscle (B) and liver (C) and doses as low as 50 mg kg-1 are almost enough to elicit a maximal increase in O-GlcNAc levels.
Eight give-week old healthy Sprague-Dawley rats (Charles River) were caged in pairs. The animals were allowed to acclimatize to their new surroundings at the Simon Fraser University Animal Care Facilities (SFU ACF) for one week. At 3:00 pm, four rats were given a tail vein injection of 400 μl of inhibitor 9c dissolved in PBS buffer (pH 7.4) at a dose of 50 mg kg^−1. The remaining four rats were given a tail vein injection of 400 μl of PBS as a control. All solutions were pre-sterilized through a 0.2 μm filter (Millipore) and injected with 0.5 mL syringes containing a 28 gauge×0.5″ needle (Terumo) as bolus over 10 seconds. Food was withdrawn at approximately 11:00 pm. At 8:30 am the following morning, the rats were given a second injection. After three hours the rats were anesthetized with isoflurane and a 100 μL blood sample was taken from the jugular vein to measure the fasting blood glucose levels. An intravenous glucose tolerance test (IVGTT) was then performed. A 0.5 mL injection of a 50% w/v solution of glucose dissolved in PBS (pre-sterilized) was administered via the tail vein over 30 seconds. At 10, 20, 30, 40, 60, and 90 minutes after the injection of glucose, a 100 μL sample of blood was taken from the jugular vein. Immediately following blood sampling, a small aliquot of the blood was used to measure the blood glucose concentration using a glucometer (Accu-Check Advantage, Roche) and the remaining blood was stored on ice for 20 minutes and spun down to isolate the serum. Following completion of the IVGTT, the rats were sacrificed with 1:1 mixture of CO2/O2. Tissue samples (brain, muscle, liver, spleen, pancreas, fat) were immediately harvested and flash frozen with liquid nitrogen and stored at −80° C. To homogenize the tissues to obtain a cell extract, tissue were kept frozen while they were ground with a mortal and pestle into a fine powder. 100 mg of the powder was then homogenized in 1 mL of cold lysis buffer (50 mM Tris, 0.5% sodium deoxycholate, 0.1% SDS, 1% nonidet P-40, 1 mM EDTA, 1 mM PMSF, and 1 mM butyl-NAG-thiazoline) using two 10 second pulse on a Jenke and Kunkel Ultra-Turrax tissue homogenizer tissue homogenizer. Tissues were then spun down at 13,000 rpm in a microcentrifuge (eppendrof) to remove the cell debris. The soluble cell extract was then analyzed for levels O-GlcNAc modified proteins using Western blot analysis as described above for the cell studies.

Another data set concerns COS-7 cells. In words: Proliferation rate and morphology of COS-7 cells incubated with inhibitors. The class given is cell-based. As to conditions: 50 μM inhibitor. The procedure:
COS-7 cells were cultured in DMEM medium (Invitrogen) supplemented with 5-10% FBS (Invitrogen). Aliquots of inhibitors (50 μL of a stock in 95% ethanol) were delivered onto tissue culture plates and the ethanol was evaporated. The cells were incubated at 37° C. for 40 hours at which time they reached approximately 80% confluence. […] COS-7 cells were cultured to 25% confluence in 5% FBS and an aliquot (100 μL) of inhibitor dissolved in media and filter sterilized was added to each plate to yield a final concentration of 50 μM of inhibitor. COS-7 cells (2×10 cm plates) were harvested at the appropriate times by scraping and were pooled by centrifugation (200×g, 10 min). Cells were washed once with PBS, pH 7.0 (10 mL) and pelleted (200×g, 10 min). The cells could be frozen at −80° C. at this point. Control cultures without inhibitors were treated in the same manner.

In data set [2] the test system is O-GlcNAc modified proteins in rat tissues. In words: Oral availability: tissue O-GlcNAc levels in rats fed inhibitor in chow. Format: in vivo. The procedure: To determine if the inhibitor 9c is orally available, it was incorporated into the chow (Lab Diet 5001 Rodent Diet, PMI Nutrition International, LLC). To make the rat chow, 600 g of the ground chow was mixed with 355 ml of water and 5 μL of the inhibitor dissolved in ethanol. Small pieces were then prepared with a pasta machine (Pasta Express, Creative) and dehydrated overnight at 37° C. (Snackmaster Dehydrator, American Harvest). Five sets of chow were made with the following amounts of inhibitor: 0 mg kg^−1 days^−1, 100 or 1000 mg kg^−1 days^−1 of the deprotected (polar) inhibitor, and 100 or 1000 mg kg^−1 day^−1 of the protected (non-polar) inhibitor. […] Ten five-week old healthy Sprague-Dawley rats (two per set of food) were then allowed to feed on the rat chow for three days. The animals were then sacrificed and tissues were collected, homogenized, and analyzed as described above.

The mark [3] stands for this setting: rats fed inhibitor in food for three days.

As to `CCCC1=N[C@@H]2[C@@H](O)[C@H](O)[C@@H](CO)O[C@@H]2S1` [Compound 9c, 1,2-dideoxy-2′-propyl-α-D-glucopyranoso-[2,1-d]-2′-thiazoline], in data set [1] (tail vein injection), the “discomforts of treated rats compared to the control rat” value is recorded as “did not appear to show any discomforts”, the “dose enough to elicit the maximal increase in O-GlcNAc modified proteins” value amounted to 50 mg/kg, the “time for which the inhibitor retains an effect” value is not below 6 h and the “time in which the inhibitor gains access to a wide variety of tissues” value was “less than 24 hours”. Also, the “cellular levels of O-GlcNAc modified proteins in brain tissue” value in data set [1] (tail vein injection, 50, 120 and 300 mg/kg, compared to controls) is “marked increases”. The “dose almost enough to elicit a maximal increase in O-GlcNAc levels” value in data set [1] (tail vein injection, brain, muscle, liver) is approximately 50 mg/kg. For the same compound, the “proliferation rate or morphology compared to control cells” value in the data set on COS-7 cells is on record as “no abnormalities in proliferation rate or morphology”. The “cellular levels of O-GlcNAc modified proteins in brain tissue, oral 100 mg/kg/day” value in data set [2] (rats fed inhibitor in chow for three days) is given as “marked increases”. For the same compound, in data set [2] (rats fed inhibitor in chow for three days, compared with 100 mg/kg/day), the “cellular levels of O-GlcNAc modified proteins in brain tissue, oral 1000 mg/kg/day” value is recorded as “even greater”. Further, in data set [2] (setting [3]), the “O-GlcNAc modified proteins in brain, muscle, pancreas, fat and spleen, oral 100 mg kg^−1 day^−1 (FIG. 12 legend)” value was “large increases”; the “O-GlcNAc modified proteins in tissues, oral 1000 mg kg^−1 days^−1 (FIG. 12 legend)” value is “slightly greater increases”.
